According to US12053452B2 (priority 2021, dated 2024):
Entries after “also recorded” stand apart in the source; their conditions may differ.

How the values were obtained:
Assay type in all cases: in vivo
BTBR mice [1] = assay: Radiotelemetry of core temperature, BTBR
Experimental: (§1) The radiotelemetry assay was conducted in adult male C57 and BTBR mice (n=6 per group) in a dedicated testing room where ambient light, sound, and human contact were tightly controlled.
(§2) Prior to surgical implantation of radiotelemetry probes, mice received 3 mg/kg meloxicam (IP), and anesthesia was induced with 4% inhaled isoflurane and maintained with 1-3% isoflurane (as needed) throughout the procedure at a flow rate of 1.5 litres/minute. The abdominal area of each animal was treated with depilatory cream, then sanitized with 3 alternating scrubs with iodine and alcohol. A rostral-caudal cut approximately 1.5 cm in length was made with sterile skin scissors, providing access to the intraperitoneal cavity. A cylindrical glass-encapsulated radiotelemetry probe (model ER-4000 E-Mitter, Mini Mitter, Bend, OR, USA) was then inserted. These probes measure 15.5 mm×6.5 mm and weigh approximately 1 gram. Incisions were closed (skin layer and muscle layer separately) using reverse cutting 5-0 Vicryl absorbable sutures for the muscle layer and 5-0 nylon suture material for the skin layer. Surgeries were carried out at least 7 days before initiation of experimental conditions, allowing time for incisions to heal and for animals to recover normal body weights. Following surgery, all implanted mice were individually housed in Plexiglas cages within the telemetry room for the duration of all experiments. Implanted transmitters produce activity- and temperature-modulated signals which are sent to a receiver (model ER-4000 Receiver, Mini Mitter Co., Inc.) underneath each cage. Following use, telemetry probes were removed from carcasses, wiped with alcohol swabs, and stored in the disinfectant solution until re-use.
(§3) At least 7 days after surgical implantation of radiotelemetry probes, mice in their individual home cages were placed atop a telemetry energizer/receiver, which powered probes and transmitted their data to an interfaced computer. Upon initiation of an experimental session, the computer collected two data updates from the probes at 5 min intervals: core temperature (in ° C.) on one channel, and locomotor counts (in arbitrary units, depending on the relative position of the probe atop the receiver) on the other. After at least 60 minutes of baseline data collection, mice were removed from their cages, injected with saline or a given dose of a specific drug, then returned to the home cage 24 hours of data collection.
(§4) Food and water were always freely available in the home cage. Mice were injected with ascending doses of a given drug, with at least 48 hours separating doses. Because there are few studies of drug effects in BTBR mice, the first drug dose tested occasionally elicited unexpectedly large locomotor effects in these animals. In these cases, smaller drug doses were tested next, after a washout period of at least one full day.

BTBR mice [2] = assay: Radiotelemetry of locomotor activity, BTBR; settings: for locomotor activity: 0 to 240 minutes; for pattern of locomotor activity / dose-effect curve: any dose
Experimental: as §1, §2, §3, §4

C57 mice [3] = assay: Radiotelemetry of core temperature, C57
Experimental: as §1, §2, §3, §4

BTBR mice [4] = assay: Social preference procedure: compartment entries (proxy for locomotor stimulant effects), BTBR
Experimental: (§5) This assay was conducted in adult male C57 and BTBR mice (n=6 per group) in a dedicated conditioning room where ambient light, sound, and human contact were tightly controlled. Social preference chambers consist of two polycarbonate boxes (13.5 cm wide×22.5 cm tall×31.0 cm deep), floored with rough-textured black ABS plastic, and connected to one another by a 1.25″ PVC T-junction. An infrared photobeam emitter/detector array is mounted at each intersection of the T-junction and each preference compartment, and as a mouse traversed the apparatus, it would break the photobeam upon entry to or exit from each preference compartment. Beam breaks started or stopped a counter on an interfaced computer, allowing automated collection of time spent in each compartment. At the end of each test, data were reported as time (in seconds) spent in each compartment, the number of entries into each compartment, and the average time spent in each compartment following an entry. Social preference tests were conducted in an iterative manner, with each test subject completing four distinct phases as described below. Between testing sessions, chambers were sanitized by wiping the insides with a disinfectant product provided by the UAMS Department of Laboratory Animal Medicine. At the end of the week (upon completion of all phases of the procedure), each apparatus was disassembled and all parts were sanitized. No food or water were available during social preference sessions, but were available in the home cage immediately afterwards.
Quantification of total entries into the preference compartments provided a proxy measurement for locomotor stimulant effects of the various doses of the various test drugs. This established a limit to the drug doses that can be tested in the social preference procedure, as induction of locomotor stimulant effects confounds preference assessments (because mice stop attending to the social stimuli in each compartment and instead spend their time engaged in locomotor behavior.) Motor activity varied across the distinct phases of social preference testing, in part because the habituation session is twice as long (30 minutes) as the novelty, sociability, and social novelty tests (15 minutes each), but also because mice emitted high levels of exploratory behavior in novel environments. Thus, as familiarity with the test apparatus increased over successive exposures to the chambers, the number of entries decreased.
(Note that entries were collected for every test, but drug effects on entries during earlier phases may be less reliable due to the confounding influence of changing familiarity with the apparatus across phases.)

C57 mice [5] = assay: Sociability test, C57
Experimental: as §5
A single sociability session occurred the day after the novelty preference test, where one compartment contained a wire mesh cup with a dummy mouse inside while the other compartment contained a male NIH Swiss stranger mouse inside the previously empty cup. […] The position of the dummy mouse (left or right compartment) remained the same for each subject as during the novelty test the day before, thereby counterbalancing the position of the stranger mouse across subjects. NIH Swiss stranger mice were similar in mass and appearance to the dummy PVC mice, and were housed separately from the experimental subjects (C57 and BTBR mice) in the colony facility. The first time the experimental subjects ever encountered the stranger mice was when they entered the compartment where they were contained. During this session, mice were weighed, administered the same injection as the day before, and returned to their home cage for a 30 min pretreatment period. Mice were then introduced into the T-junction and allowed to explore both preference compartments for 15 minutes. Sociability tests always occurred on Wednesdays or Thursdays to prevent any weekend testing.

BTBR mice [6] = assay: Social novelty preference test, BTBR (autism spectrum disorder model); settings: BTBR mice
Experimental: as §5
A single social novelty preference session occurred the day after the sociability test, where one compartment contained a wire mesh cup with the same NIH Swiss mouse from the previous day inside (referred to now as the “familiar” mouse) while the other compartment contained a new male NIH Swiss stranger mouse inside the cup which previously contained the dummy mouse during the sociability test. […]

For `CN[C@@H](C)Cc1ccc2c(c1)OCO2` [S(+)-MDMA, (2S)-1-(1,3-benzodioxol-5-yl)-N-methylpropan-2-amine], the “effect on core temperature” value (BTBR mice [1]; 10 mg/kg IP, 10 mg/kg) was “elicited a similar increase in temperature”, the “effect on core temperature” value (BTBR mice [1]; 10 mg/kg IP, listed as S-MDMA, 10 mg/kg) was “did not differ much from that observed with Racemic MDMA” and the “jump in core temperature” value (BTBR mice [1]; 18 mg/kg i.p) was “greater than that observed by administration of 56 mg/kg i.p of Racemic MDMA”. The “effect on core temperature” value (BTBR mice [1]; 30 mg/kg IP, 30 mg/kg) was “elicited a large hyperthermic response”, the “effect on core temperature” value (BTBR mice [1]; 30 mg/kg IP, listed as S-MDMA, 30 mg/kg) was “strong hyperthermic response” and the “effect on core temperature” value (BTBR mice [1]; various/increasing doses IP) was “dose dependent increase in temperature”. The “effect on core temperature” value (BTBR mice [1]; various/increasing doses IP, listed as S-MDMA) was “dose-dependent increase in temperature”, the locomotor activity (BTBR mice [2]; 10 mg/kg IP) was “elicited a substantially large stimulation in motor activity” and the locomotor activity (BTBR mice [2]; 30 mg/kg IP) was “elicited a large stimulation in motor activity”. The “pattern of locomotor activity / dose-effect curve” value (BTBR mice [2]) was “No evidence of motor stereotypy”, the “effect on core temperature” value (C57 mice [3]; 10 mg/kg IP) was “elicited an increase in temperature” and the “jump in core temperature” value (C57 mice [3]; 18 mg/kg i.p) was “greater than that observed by administration of 56 mg/kg i.p of Racemic MDMA”. The “effect on core temperature” value (C57 mice [3]; 30 mg/kg IP) was “elicits significant hyperthermia”, the “lethality during core temperature recording” value (C57 mice [3]; approximately 5-8 hrs after injection) was “one animal experiencing profound hypothermia before expiring” and the “effect on core temperature” value (C57 mice [3]; various/increasing doses IP) was “dose-dependent increase in temperature”. For the same molecule, the “compartment entries (locomotor stimulant effect)” value (“compartment entries” for short) (BTBR mice [4]; 3.0 mg/kg IP, social novelty test, 3 mg/kg) was “roughly equivalent entries to 3.0 mg/kg racemic MDMA”, the “compartment entries” value (BTBR mice [4]; 3.0 mg/kg IP, social novelty test, listed as S-MDMA, 3 mg/kg) was “increased the number of entries” and the “compartment entries” value (BTBR mice [4]; all tested doses IP) was “dose-response stimulant effect”. The “sociability (time spent with the stranger mouse vs dummy)” value (C57 mice [5]; 3.0 mg/kg IP) was “not different from saline”, the “sociability (time spent with the stranger mouse vs dummy)” value (C57 mice [5]; various doses IP) was “no systematic effects on sociability” and the “social novelty preference (new stranger mouse vs familiar mouse)” value (BTBR mice [6]; 3.0 mg/kg IP) was “elicited a strong preference for the stranger mouse”.
With `CNC(C)Cc1ccc2c(c1)OCO2` (racemic) [racemic MDMA, 1-(1,3-benzodioxol-5-yl)-N-methylpropan-2-amine] the “effect on core temperature” value (BTBR mice [1]; 30 mg/kg IP) was “results in an increase in temperature but is not as significant as S-MDMA”, the “rise in core temperature” value (BTBR mice [1]; 56 mg/kg IP) was ~2 degrees C and the “effect on core temperature” value (BTBR mice [1]; various/increasing doses IP) was “gradual increase in core temperature”. For the same molecule, the “effect on core temperature” value (BTBR mice [1]; various/increasing doses IP, listed as racemic compositions of MDMA) was “dose dependent increase in temperature”, the “pattern of locomotor activity / dose-effect curve” value (BTBR mice [2]) was “No evidence of motor stereotypy; also recorded: does not follow this biphasic pattern” and the “effect on core temperature” value (C57 mice [3]; 10 mg/kg IP) was “induced a drop in core temperature”. For the same molecule, the “rise in core temperature” value (C57 mice [3]; 56 mg/kg IP) was ~2 degrees C, the “effect on core temperature” value (C57 mice [3]; various/increasing doses IP) was “gradual increase in core temperature” and the “compartment entries” value (BTBR mice [4]; 3.0 mg/kg IP, social novelty test) was “increased the number of entries”. For the same molecule, the “compartment entries” value (BTBR mice [4]; 5.6 mg/kg IP, social novelty test) was ~100 entries, the “compartment entries” value (BTBR mice [4]; all tested doses IP) was “dose-response stimulant effect” and the “sociability (time spent with the stranger mouse vs dummy)” value (C57 mice [5]; 3.0 mg/kg IP, 3 mg/kg) was “moderate preference for the stranger over the dummy”. For the same molecule, the “sociability (time spent with the stranger mouse vs dummy)” value (C57 mice [5]; 3.0 mg/kg IP, listed as racemic (50/50) MDMA, 3 mg/kg) was “elicit significant effects on sociability”, the “sociability (time spent with the stranger mouse vs dummy)” value (C57 mice [5]; various doses IP) was “dose-dependent increase in time spent with the stranger mouse” and the “social novelty preference (new stranger mouse vs familiar mouse)” value (BTBR mice [6]; all doses IP) was “exhibiting preferences for the stranger mouse”.
